Each structure is given as a SMILES string. Like-named read-outs stand apart in the source and are kept apart here.

Usually IC50 stands for the midpoint of a concentration-inhibition curve.

The target of this assay is T1, human complement factor D (Homo sapiens, UniProt P00746).
T1 construct: purchased R&D Systems 1824-SE
As to the kind of experiment: In vitro enzyme inhibition of human complement factor D (Z-Lys-SBzl/DTNB, A405). It is filed as biochemical. Here is the method: The ability of the compounds disclosed herein to inhibit human complement factor D inhibitory activity was quantified according to the 12-step protocol provided below. • 1. Prepare assay buffer: 50 mM Tris/HCl, pH 7.5, 1 M NaCl. • 2. […] Then dilute the serial concentrations of Nafamostat Mesilate 20-fold in assay buffer. • 3. […] 0.5% DMSO was in each well finally. • 4. […] Add 10 μl diluted test compounds duplicated into the 96-well plate. […] 0.5% DMSO was in each well finally. • 6. Dilute 20 mM substrate Z-Lys-SBzl (Bachem, Cat# M-1300) to 200 μM in assay buffer with 200 μM DTNB (Sigma, Catalog# D8130). • 7. […] Add 40 μl diluted Complement Factor D in the 96-well plate. • 8. Positive control well contains Complement Factor D without test compound. Negative control well contains neither Complement Factor D nor test compound. Using assay buffer, bring the total volume of all controls to 50 al. • 9. Pre-incubate the plate for 5 min at room temperature. • 10. Add 50 μl of diluted substrate/DTNB mixture into each well. […] For kinetic reading: Immediately start measuring absorbance (A405 nm) continuously and record data every 30 sec for 60 min. • 12. Data analysis • Inhibition activity of compound was evaluated by IC50. IC50 was calculated according the dose-response curve of compound fitted using GraphPadPrism with “log(inhibitor)-response (variable slope)” equation. • % inhibition was calculated by using following equation:
[formula] • Mean(NC): The average value of the negative control wells' A405 nm values. • Mean(PC): The average value of the positive control wells' A405 nm values.

Where [1] appears, read: biochemical assay, substrate Z-Lys-SBzl, read-out: CFD IC50.

T1 sequence (P00746 26-253): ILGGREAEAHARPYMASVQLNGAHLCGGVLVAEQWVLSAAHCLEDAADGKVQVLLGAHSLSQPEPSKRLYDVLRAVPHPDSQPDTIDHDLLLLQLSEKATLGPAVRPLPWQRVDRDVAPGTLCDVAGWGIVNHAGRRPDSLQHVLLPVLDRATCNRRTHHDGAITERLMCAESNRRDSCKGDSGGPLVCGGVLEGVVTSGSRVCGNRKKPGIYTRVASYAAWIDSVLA

As to `CNCCN(CC(=O)Nc1cccc(Cl)n1)C(=O)Cn1nc(C(N)=O)c2ccccc21` [Example 23, 1-(2-((2-((6-chloropyridin-2-yl)amino)-2-oxoethyl)(2-(methylamino)ethyl)amino)-2-oxoethyl)-1H-indazole-3-carboxamide], the concentration for half-maximal inhibition (IC50) under setting [1] was in the range of 1 to 10 µM.
Regarding `NC(=O)n1cc(CC(=O)N(CC(=O)NCc2cccc(Cl)c2F)C2CC2)c2ccccc21` [Example 41, 3-(2-((2-((3-chloro-2-fluorobenzyl)amino)-2-oxoethyl)(cyclopropyl)amino)-2-oxoethyl)-1H-indole-1-carboxamide], the half-maximal inhibitory concentration (IC50) under setting [1] was 0.1 to 1 µM.
Take `NC(=O)c1ccc(CNC(=O)CN(C(=O)Cn2nc(C(N)=O)c3ccccc32)C2CC2)c(F)c1` [Example 117, 1-(2-((2-((4-carbamoyl-2-fluorobenzyl)amino)-2-oxoethyl)(cyclopropyl)amino)-2-oxoethyl)-1H-indazole-3-carboxamide]: the half-maximal inhibitory concentration (IC50) under setting [1] fell in the range of 1 to 10 µM.
Turning to `NC(=O)c1nn(CC(=O)N(CC(=O)NCc2cc(Cl)c3cn[nH]c3c2)C2CC2)c2ccccc12` [Example 102, 1-(2-((2-(((4-chloro-1H-indazol-6-yl)methyl)amino)-2-oxoethyl)(cyclopropyl)amino)-2-oxoethyl)-1H-indazole-3-carboxamide], the IC50 under setting [1] was 1 to 10 µM.
On to `NC(=O)c1nn(CC(=O)N(CC(=O)NCc2cncc(Cl)c2)C2CC2)c2ccccc12` [Example 130, 1-(2-((2-(((5-chloropyridin-3-yl)methyl)amino)-2-oxoethyl)(cyclopropyl)amino)-2-oxoethyl)-1H-indazole-3-carboxamide], for which the IC50 under setting [1] is 1 to 10 µM.
On the same count and under the same terms, for `NC(=O)c1nc(CC(=O)N(CC(=O)NCc2cccc(Cl)c2F)C2CC2)n2ccccc12` [Example 42, 3-(2-((2-((3-chloro-2-fluorobenzyl)amino)-2-oxoethyl)(cyclopropyl)amino)-2-oxoethyl)imidazo[1,5-a]pyridine-1-carboxamide] the value was 0.1 to 1 µM.
For the molecule `N#Cc1cccc2c(C(N)=O)nn(CC(=O)N(CC(=O)NCc3cccc(Cl)c3F)C3CC3)c12` [Example 105, 1-(2-((2-((3-chloro-2-fluorobenzyl)amino)-2-oxoethyl)(cyclopropyl)amino)-2-oxoethyl)-7-cyano-1H-indazole-3-carboxamide], the half-inhibitory concentration (IC50) under setting [1] fell in the range of 1 to 10 µM.
On the same count and under the same terms, for `C[C@@H](C(=O)NCc1cccc(Cl)c1F)N(C)C(=O)Cn1nc(C(N)=O)c2ccccc21` [Example 3, (S)-1-(2-((1-((3-chloro-2-fluorobenzyl)amino)-1-oxopropan-2-yl)(methyl)amino)-2-oxoethyl)-1H-indazole-3-carboxamide] the value was 1 to 10 µM.
On the same count and under the same terms, for `NC(=O)n1nc(CC(=O)N(CC(=O)Nc2cccc(Cl)n2)C2CCCC2)c2ccccc21` [Example 19, 3-(2-((2-((6-chloropyridin-2-yl)amino)-2-oxoethyl)(cyclopentyl)amino)-2-oxoethyl)-1H-indazole-1-carboxamide] the value was 0.1 to 1 µM.
As to `NCCN(CC(=O)NCc1cccc(Cl)c1F)C(=O)Cn1nc(C(N)=O)c2ccccc21` [Example 31, 1-(2-((2-aminoethyl)(2-((3-chloro-2-fluorobenzyl)amino)-2-oxoethyl)amino)-2-oxoethyl)-1H-indazole-3-carboxamide], the half-maximal inhibitory concentration (IC50) under setting [1] was 0.1 to 1 µM.
Same read-out and setting: for `NC(=O)c1nn(CC(=O)N(CC(=O)NCc2cccc(F)c2F)C2CC2)c2ccccc12` [Example 132, 1-(2-(cyclopropyl(2-((2,3-difluorobenzyl)amino)-2-oxoethyl)amino)-2-oxoethyl)-1H-indazole-3-carboxamide] the value was 0.1 to 1 µM; for `CC(O)c1nn(CC(=O)N(CC(=O)NCc2cccc(Cl)c2F)C2CC2)c2ccccc12` (centres unmarked) [Example 49, N-(2-((3-chloro-2-fluorobenzyl)amino)-2-oxoethyl)-N-cyclopropyl-2-(3-(1-hydroxyethyl)-1H-indazol-1-yl)acetamide], 1 to 10 µM; for `CC1(C)C[C@H](O)C[C@@H](NC(=O)CN(C(=O)Cn2nc(C(N)=O)c3ccccc32)C2CC2)C1` [Example 10, 1-(2-(cyclopropyl(2-(((1S,5S)-5-hydroxy-3,3-dimethylcyclohexyl)amino)-2-oxoethyl)amino)-2-oxoethyl)-1H-indazole-3-carboxamide], 1 to 10 µM.
`NC(=O)c1nn(CC(=O)N(CC(=O)NCc2ccccc2F)C2CC2)c2ccccc12` [Example 115, 1-(2-(cyclopropyl(2-((2-fluorobenzyl)amino)-2-oxoethyl)amino)-2-oxoethyl)-1H-indazole-3-carboxamide]: under setting [1], the IC50 is 1 to 10 µM.
For the molecule `NC(=O)c1nn(CC(=O)N(CC(=O)NCc2cc(Cl)cc(C(F)(F)F)c2)C2CC2)c2ccccc12` [Example 124, 1-(2-((2-((3-chloro-5-(trifluoromethyl)benzyl)amino)-2-oxoethyl)(cyclopropyl)amino)-2-oxoethyl)-1H-indazole-3-carboxamide], the IC50 under setting [1] lay within 1 to 10 µM.
Regarding `N#Cc1cc(Cl)cc(CNC(=O)CN(C(=O)Cn2nc(C(N)=O)c3ccccc32)C2CC2)c1` [Example 133, 1-(2-((2-((3-chloro-5-cyanobenzyl)amino)-2-oxoethyl)(cyclopropyl)amino)-2-oxoethyl)-1H-indazole-3-carboxamide], the IC50 under setting [1] was 1 to 10 µM.
Still for that read-out and setting: as for `CC(=O)NCCN(CC(=O)Nc1cccc(Cl)n1)C(=O)Cn1nc(C(N)=O)c2ccccc21` [Example 24, 1-(2-((2-acetamidoethyl)(2-((6-chloropyridin-2-yl)amino)-2-oxoethyl)amino)-2-oxoethyl)-1H-indazole-3-carboxamide], the figure is 1 to 10 µM; as for `NC(=O)c1nn(CC(=O)N(CC(=O)NCc2cccc(Cl)c2F)C(CO)C2CC2)c2ccccc12` (centres unmarked) [Example 69, 1-(2-((2-((3-chloro-2-fluorobenzyl)amino)-2-oxoethyl)(1-cyclopropyl-2-hydroxyethyl)amino)-2-oxoethyl)-1H-indazole-3-carboxamide], 1 to 10 µM.
For `NC(=O)c1nn(CC(=O)N(CC(=O)NCc2cccc(Cl)c2F)C2CC2)c2ccc(C(F)(F)F)cc12` [Example 95, 1-(2-((2-((3-chloro-2-fluorobenzyl)amino)-2-oxoethyl)(cyclopropyl)amino)-2-oxoethyl)-5-(trifluoromethyl)-1H-indazole-3-carboxamide], the concentration for half-maximal inhibition (IC50) under setting [1] was 1 to 10 µM.
`NC(=O)c1nn(CC(=O)N(CC(=O)NCc2cccc(Cl)n2)C2CC2)c2ccccc12` [Example 107, 1-(2-((2-(((6-chloropyridin-2-yl)methyl)amino)-2-oxoethyl)(cyclopropyl)amino)-2-oxoethyl)-1H-indazole-3-carboxamide]: under setting [1], the IC50 was 1 to 10 µM.
The molecule `NC(=O)c1nn(CC(=O)N(CC(=O)NCc2cccc(Cl)c2F)C2CC2)c2cc(Cl)ccc12` [Example 85, 6-chloro-1-(2-((2-((3-chloro-2-fluorobenzyl)amino)-2-oxoethyl)(cyclopropyl)amino)-2-oxoethyl)-1H-indazole-3-carboxamide] returned an IC50 of 0.1 to 1 µM.
As to `NC(=O)c1nn(CC(=O)N(CC(=O)NCc2cccc(Cl)c2F)C2CC2)c2c(F)cccc12` [Example 88, 1-(2-((2-((3-chloro-2-fluorobenzyl)amino)-2-oxoethyl)(cyclopropyl)amino)-2-oxoethyl)-7-fluoro-1H-indazole-3-carboxamide], under setting [1], the half-maximal inhibitory concentration (IC50) was 0.1 to 1 µM.
Take `COc1ccc(CNC(=O)CN(C(=O)Cn2nc(C(N)=O)c3ccccc32)C2CC2)cc1Cl` [Example 125, 1-(2-((2-((3-chloro-4-methoxybenzyl)amino)-2-oxoethyl)(cyclopropyl)amino)-2-oxoethyl)-1H-indazole-3-carboxamide]: under setting [1], the IC50 was 1 to 10 µM.
